The test system of one experiment is TFEB. The experiment in a line: TFEB nuclear translocation time course in transfected N2A cells. The class given is cell-based, mouse. The conditions noted are these: for TFEB nuclear translocation: N2A cells; for TFEB nuclear translocation (i.e., activation): overall statement, GFP-TFEB transfected N2A cells, acute treatment. As to the method:
FIG. 15(A-B). Treatment with LM11A-31 stimulates TFEB nuclear translocation as monitored via time course study. For (A), wild type neuro 2A […] neuroblastoma (N2A) cells were plated and transfected with a pEGFP-N1-TFEB plasmid for a 24-hour incubation. Cells were dyed and imaged on the CellInsight™ CX7 High-Content Screening Platform (CX7) then treated with media containing vehicle or LM11A-31 (100 nM, 1 μM). Cells were imaged every 30 minutes for three hours on the CX7 with incubation between imaging sessions, and results were quantified. The statistics were analyzed using Graphpad Prism™. One-way ANOVA. Mean S.E.M. Dunnett's multiple comparisons test compared to the vehicle treated group. *p<0.05, **p<0.01, ***p<0.001, ****p<0.0001. Quantification of TFEB nuclear translocation after treatment with vehicle or LM11A-31 (100 nM, 1 μM). […] (B) Since LM11A-31 increases the expression of lysosomal genes including the PPT1 and TPP1, and Cathepsin D enzymes, we asked whether LM11A-31 increases the overall activity levels of these enzymes in cellulo. Wild type (WT) and mutant cells were treated with vehicle or LM11A-31 (100 nM). Cells were plated on day 0 and dosed with drug-containing media on DIV3 and DIV5. Cells were lysed, and protein quantification and enzyme activity assay were performed on DIV7. Data was analyzed with GraphPad Prism™. Two-way ANOVA. Mean S.E.M. Tukey's multiple comparisons test. *p<0.05, **p<0.01, ***p<0.001. ****p<0.0001.
(§1) Treatment with AF38469 stimulates TFEB nuclear translocation as monitored via time course study. For (A) and (B), wild type neuro 2A rat neuroblastoma (N2A) cells were plated and transfected with a pEGFP-N1-TFEB plasmid for a 24-hour incubation. Cells were treated with vehicle or AF38469 (40 nM, 400 nM) for three hours then immunocytochemistry was performed with anti-GFP (Abcam, ab13970) and 4′, -diamidino-2-phenylindole-dihydrochloride (DAPI). Cells were imaged on the Nikon AIR confocal microscope. For (C), wild type N2A cells were plated and transfected with a pEGFP-N1-TFEB plasmid for a 24-hour incubation. Cells were dyed and imaged on the CellInsight™ CX7 High-Content Screening Platform (CX7) then treated with media containing vehicle or AF38469 (40 nM, 400 nM). Cells were imaged every 30 minutes for three hours on the CX7 with incubation between imaging sessions, and results were quantified. The statistics were analyzed using Graphpad Prism™. One-way ANOVA. Mean±S.E.M. Dunnett's multiple comparisons test compared to the vehicle treated group. *p<0.05,**p<0.01, ***p<0.001, ****p<0.0001. […] TFEB is a transcription factor that stimulates transcription of genes that are necessary for lysosomal biogenesis and function. Thus, increased TFEB nuclear translocation is expected to stimulate lysosomal biogenesis and function.

The next experiment concerns TFE3. The experiment in a line: TFE3 nuclear translocation time course in transfected N2A cells. To be noted: for TFE3 nuclear translocation (i.e., activation): overall statement, GFP-TFE3 transfected N2A cells, acute treatment. The class given is cell-based, mouse. Here is the method: as §1, with “stimulates TFE3” for “stimulates TFEB”, “type N2A” for “type neuro 2A rat neuroblastoma (N2A)”, “a pEGFP-N1-TFE3” for “a pEGFP-N1-TFEB”, “group. *p<0.05, **p<0.01,” for “group. *p<0.05,**p<0.01,”, “increased TFE3” for “increased TFEB”
Since LM11A-31 improves lysosomal health and function across diverse cell models of lysosomal storage disorders, we asked whether the drug could be activating transcriptional networks that regulate lysosomal function. The transcription factors TFEB and TFE3 are master regulators of lysosomal biogenesis and function. We hypothesized that LM11A-31 could exert benefits by modulating the nuclear translocation of TFEB and/or TFE3. We tested this in an in vitro system in which GFP fusions of TFEB or TFE3 are expressed and monitored with live imaging (FIG. 15A).

In the case of `CC[C@H](C)[C@H](N)C(=O)NCCN1CCOCC1` [LM11A-31, N-[2-(morpholin-4-yl)ethyl]-L-isoleucinamide], the TFEB nuclear translocation entry with TFEB (100 nM and 1 μM, 180 minutes of incubation) is “increasing trend continued”; with TFEB (100 nM, 90 minutes of incubation), “significant increase”. Besides, in the experiment with TFEB, the “TFEB nuclear translocation (i.e., activation)” value is listed as “stimulated”. Further, the TFE3 nuclear translocation entry with TFE3 (100 nM and 1 μM, 90 minutes of incubation) was “significant increase”. Also, in the experiment with TFE3, the “TFE3 nuclear translocation (i.e., activation)” value was “stimulated”.

Turning to `Cc1cccc(NC(=O)c2ccc(C(F)(F)F)cc2C(=O)O)n1` [AF38469, 2-((6-methylpyridin-2-yl)carbamoyl)-5-(trifluoromethyl)benzoic acid], the TFEB nuclear translocation result with TFEB (40 nM and 400 nM, 180 minutes of incubation, vs vehicle) is on record as “significant increase”; in the experiment on TFEB (40 nM, 90 minutes of incubation, vs vehicle), “significant increase”. Moreover, the “TFEB nuclear translocation (i.e., activation)” value in the experiment on TFEB is “stimulated”. The TFE3 nuclear translocation entry in the experiment with TFE3 (40 nM and 400 nM, 90 minutes of incubation, N2A cells, vs vehicle) was “significant increase”; in the experiment with TFE3 (40 nM, 180 minutes of incubation, N2A cells) it was “return to baseline”; in the experiment with TFE3 (400 nM, 180 minutes of incubation, N2A cells) it was “trend towards increased nuclear translocation”. Also, the “TFE3 nuclear translocation (i.e., activation)” value in the experiment with TFE3 is “stimulates”.

Values taken from patent publication US20240197700A1, “Methods and Compositions for Treating Lysosomal Storage Disorders” (Sanford Health, priority 2021, published 2024).
